From patent US20220380370A1 (Goldfinch Bio, Inc., priority 2019, published 2022)

Experiments:
[1] = target: T1, CB2 receptor (Homo sapiens, UniProt P34972); experiment: CB2 cAMP antagonist assay (LANCE Ultra cAMP kit); type: cell-based; conditions: CB2-CHO cells stably expressing the CB2 receptor; forskolin and agonist CP55940 at EC90
T1 construct: host or cells: CB2-CHO cells, stably expressing
Text: (§1) LANCE Ultra cAMP kit (Perkin Elmer) was used to quantitate the amount of 3′,5′-cyclic adenosine monophosphate (cAMP) produced in Flp-In CHO cells (Invitrogen) stably expressing the CB1 receptor, CB1-CHO cells (Perkin Elmer) stably expressing the CB1 receptor, or CB2-CHO cells (Perkin Elmer) stably expressing the CB2 receptor.
(§2) Forskolin was initially titrated to determine the response of the cells. The EC90 of forskolin was used for compound testing. CP55940 was titrated and used with EC90 of forskolin to determine the level of agonist stimulation. EC90 of the agonist was used for subsequent compound testing. For the CB1 assay, Forskolin (Sigma), CP55940 (Cayman Chemicals), and AM251 (MCE) were diluted in 100% DMSO, starting at 100 mM, 1 mM, and 1 mM respectively, in 3-fold serial dilutions. For the CB2 assay, Forskolin (Sigma), CP55940 (Cayman Chemicals), and AM630 (MCE) were diluted in 100% DMSO, starting at 100 mM, 1 mM, and 30 mM respectively, in 3-fold serial dilutions. Test compounds were diluted in 100% DMSO starting from 10 mM, 3-fold dilutions. The cAMP assay buffer contains 1× Hank's Buffered Saline Solution with Ca^2+ and Mg^2+ (Invitrogen), 5.3 mM HEPES (Invitrogen), 0.05% BSA, 0.5 mM IBMX (Sigma). For all assays, cells were harvested, counted, and diluted in cAMP assay buffer to 1×10^5 cells/mL. Only cells with viability >85% were used for the assay. Cells were seeded at 1000 cells/well in 384-well plates and 10 nL/well AM251 (for CB1), AM630 (for CB2) or test compound was added and incubated at 37° C. for 10 min. Then forskolin and agonist were added to reach their EC90 and incubated at 25° C. for 30 min. To detect the amount of cAMP produced, 5 μL of a 100× diluted stock of Eu-cAMP tracer and 5 μL of 200× diluted stock of Ulight-anti-cAMP were added to each well, and the plate incubated at 25° C. for 15 min. The FRET signal was read using an EnVision microplate reader (λex=320 nm, λem=615 nm and 665 nm). The results are expressed as % Inhibition, where % inhibition=100−100×(U−C2)/(C1−C2), where U is the FRET ratio (λem (665 nm)/λem (615 nm)) of sample, C1 is the average of the high controls (signal with no antagonist added), and C2 is the average of low controls (signal with the highest concentration of AM251 or AM630 antagonist). The IC50 is determined by fitting the percentage of inhibition as a function of compound concentrations with the Hill equation, using a 4-parameter fit in either XLfit or GraphPad Prism.

[2] = target: T2, CB1 receptor (Homo sapiens, UniProt P21554); experiment: CB1 cAMP antagonist assay (LANCE Ultra cAMP kit); type: cell-based; conditions: CHO cells stably expressing the CB1 receptor; forskolin and agonist CP55940 at EC90
T2 construct: Perkin Elmer (CB1-CHO cells); host or cells: Flp-In CHO cells or CB1-CHO cells, stably expressing
Text: as §1, §2

T1 sequence (P34972 whole entry): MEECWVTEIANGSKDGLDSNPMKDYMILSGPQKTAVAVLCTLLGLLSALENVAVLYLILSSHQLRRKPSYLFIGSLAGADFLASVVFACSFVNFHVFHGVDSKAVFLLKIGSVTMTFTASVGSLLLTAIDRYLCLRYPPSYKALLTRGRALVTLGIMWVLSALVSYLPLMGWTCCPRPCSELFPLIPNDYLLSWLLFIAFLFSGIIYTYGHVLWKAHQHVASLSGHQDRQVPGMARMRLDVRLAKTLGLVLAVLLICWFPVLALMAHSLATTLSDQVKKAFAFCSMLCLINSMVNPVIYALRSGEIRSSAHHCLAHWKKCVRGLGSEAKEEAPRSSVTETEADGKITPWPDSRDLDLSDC
T2 sequence (P21554 whole entry): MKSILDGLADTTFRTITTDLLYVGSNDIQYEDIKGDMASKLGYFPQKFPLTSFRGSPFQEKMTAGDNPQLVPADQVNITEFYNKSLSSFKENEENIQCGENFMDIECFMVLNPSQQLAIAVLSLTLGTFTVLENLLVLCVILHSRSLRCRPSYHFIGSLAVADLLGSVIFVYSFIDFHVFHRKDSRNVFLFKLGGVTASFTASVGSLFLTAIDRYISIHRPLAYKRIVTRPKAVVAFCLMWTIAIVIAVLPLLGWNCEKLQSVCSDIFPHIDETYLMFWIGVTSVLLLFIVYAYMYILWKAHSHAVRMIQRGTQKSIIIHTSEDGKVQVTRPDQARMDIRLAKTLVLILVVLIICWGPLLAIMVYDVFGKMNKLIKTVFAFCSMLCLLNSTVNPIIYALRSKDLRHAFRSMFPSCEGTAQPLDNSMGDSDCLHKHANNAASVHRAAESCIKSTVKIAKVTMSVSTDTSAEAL

Row | IC50 [1] | IC50 [2] | Structure (SMILES)
1 | ≥ 5 µM | < 0.1 µM | O=c1c2c(nc(-c3ccccc3Cl)n2-c2ccc(Cl)cc2)n(C2CCCCC2)c(=O)n1CCO [Compound 104, 8-(2-chlorophenyl)-7-(4-chlorophenyl)-3-cyclohexyl-1-(2-hydroxyethyl)-2,3,6,7-tetrahydro-1H-purine-2,6-dione]
2 | ≥ 5 µM | < 0.1 µM | Cn1c(=O)c2c(nc(-c3ccccc3Cl)n2-c2ccc(Cl)cc2)n(Cc2ccc(S(N)(=O)=O)cn2)c1=O [Compound 159, 6-[[8-(2-chlorophenyl)-7-(4-chlorophenyl)-1-methyl-2,6-dioxopurin-3-yl]methyl]pyridine-3-sulfonamide]
3 | ≥ 5 µM | < 0.1 µM | C[C@H](c1ccc(C(=O)NCCO)cc1)n1c(=O)n(C)c(=O)c2c1nc(-c1ccccc1Cl)n2-c1ccc(Cl)cc1 [Compound 131]
4 | ≥ 5 µM | < 0.1 µM | COCCn1c(=O)c2c(nc(-c3ccccc3Cl)n2-c2ccc(Cl)cc2)n(C2CCCCC2)c1=O [Compound 101]
5 | ≥ 5 µM | < 0.1 µM | NC(=O)Cn1c(=O)c2c(nc(-c3ccccc3Cl)n2-c2ccc(Cl)cc2)n(CC2CCS(=O)(=O)CC2)c1=O [Compound 136, 2-[8-(2-chlorophenyl)-7-(4-chlorophenyl)-3-[(1,1-dioxo-1λ^6-thian-4-yl)methyl]-2,6-dioxopurin-1-yl]acetamide]
6 | ≥ 5 µM | < 0.1 µM | Cn1c(=O)c2c(nc(-c3ccccc3Cl)n2-c2ccc(Cl)cc2)n(Cc2ccc(S(N)(=O)=O)cc2)c1=O [Compound 135, 4-[[8-(2-chlorophenyl)-7-(4-chlorophenyl)-1-methyl-2,6-dioxopurin-3-yl]methyl]benzenesulfonamide]
7 | ≥ 5 µM | < 0.1 µM | CC(c1ccc(C(N)=O)cc1)n1c(=O)n(C[C@@H](O)CO)c(=O)c2c1nc(-c1ccccc1Cl)n2-c1ccc(Cl)cc1 (stereo in doubt) [Compound 150, 4-[(1S)-1-[8-(2-chlorophenyl)-7-(4-chlorophenyl)-1-[(2R)-2,3-dihydroxypropyl]-2,6-dioxopurin-3-yl]ethyl]benzamide]
8 | ≥ 5 µM | < 0.1 µM | NC(=O)c1ccc(Cn2c(=O)n(C[C@@H](O)CO)c(=O)c3c2nc(-c2ccccc2Cl)n3-c2ccc(Cl)cc2)cc1 [Compound 132, 4-[[8-(2-chlorophenyl)-7-(4-chlorophenyl)-1-[(2R)-2,3-dihydroxypropyl]-2,6-dioxopurin-3-yl]methyl]benzamide]
9 | ≥ 5 µM | < 0.1 µM | O=c1[nH]c(=O)n(C2CCCCC2)c2nc(-c3ccccc3Cl)n(-c3ccc(Cl)cc3)c12 [Compound 100]
10 | ≥ 5 µM | < 0.1 µM | Cn1c(=O)c2c(nc(-c3ccccc3Cl)n2-c2ccc(Cl)cc2)n(Cc2ccc(C(=O)NC3CCOCC3)cn2)c1=O [Compound 165]
11 | ≥ 5 µM | < 0.1 µM | O=c1c2c(nc(-c3ccccc3Cl)n2-c2ccc(Cl)cc2)n(C2CCCCC2)c(=O)n1CCCO [Compound 105]
12 | ≥ 5 µM | < 0.1 µM | CS(=O)(=O)N1CCC(Cn2c(=O)n(CC(N)=O)c(=O)c3c2nc(-c2ncccc2Cl)n3-c2ccc(Cl)cc2)CC1 [Compound 170, 2-[7-(4-chlorophenyl)-8-(3-chloropyridin-2-yl)-3-[(1-methanesulfonylpiperidin-4-yl)methyl]-2,6-dioxopurin-1-yl]acetamide]
13 | ≥ 5 µM | < 0.1 µM | NC(=O)Cn1c(=O)c2c(nc(-c3ccccc3Cl)n2-c2ccc(Cl)cc2)n(CC2CCOCC2)c1=O [Compound 125, 2-[8-(2-chlorophenyl)-7-(4-chlorophenyl)-3-(oxan-4-ylmethyl)-2,6-dioxopurin-1-yl]acetamide]
14 | ≥ 5 µM | < 0.1 µM | Cn1c(=O)c2c(nc(-c3ccccc3Cl)n2-c2ccc(Cl)cc2)n(Cc2ccc(C(N)=O)cc2)c1=O [Compound 114]
15 | ≥ 5 µM | < 0.1 µM | NC(=O)Cn1c(=O)c2c(nc(-c3ccccc3Cl)n2-c2ccc(Cl)cc2)n(C2CCCCC2)c1=O [Compound 106]
16 | ≥ 5 µM | < 0.1 µM | Cn1c(=O)c2c(nc(-c3ccccc3Cl)n2-c2ccc(Cl)cc2)n(Cc2ccc(S(=O)(=O)NCCO)cn2)c1=O [Compound 164, 6-[[8-(2-chlorophenyl)-7-(4-chlorophenyl)-1-methyl-2,6-dioxopurin-3-yl]methyl]-N-(2-hydroxyethyl)pyridine-3-sulfonamide]
17 | ≥ 5 µM | < 0.1 µM | Cn1c(=O)c2c(nc(-c3ccccc3Cl)n2-c2ccc(Cl)cc2)n(Cc2ccc(C(=O)NCCO)cc2)c1=O [Compound 112]
18 | ≥ 5 µM | < 0.1 µM | Cn1c(=O)c2c(nc(-c3ccccc3Cl)n2-c2ccc(Cl)cc2)n(C2CCCCC2)c1=O [Compound 103]
19 | – | < 0.1 µM | CS(=N)(=O)c1ccc(Cn2c(=O)n(CC(N)=O)c(=O)c3c2nc(-c2ccccc2Cl)n3-c2ccc(Cl)cc2)cc1 (centres unmarked) [Compound 156, 2-[8-(2-chlorophenyl)-7-(4-chlorophenyl)-3-([4-[imino(methyl)oxo-lambda6-sulfanyl]phenyl]methyl)-2,6-dioxopurin-1-yl]acetamide]
20 | – | < 0.1 µM | NS(=O)(=O)Cn1c(=O)c2c(nc(-c3ccccc3Cl)n2-c2ccc(Cl)cc2)n(Cc2ccc(Cl)cn2)c1=O [Compound 169, [8-(2-chlorophenyl)-7-(4-chlorophenyl)-3-[(5-chloropyridin-2-yl)methyl]-2,6-dioxopurin-1-yl]methanesulfonamide]
